# Test results from patent US9637453B2, “3-spirocyclic-6-hydroxamic acid tetralins as HDAC inhibitors” (Forma Therapeutics, Inc., priority 2015, dated 2017).
# Columns and labels:
# [1] = biological target: T1, Full length human recombinant HDAC6 (Homo sapiens, UniProt Q9UBN7); test: In vitro histone deacetylase assay, enzymatic HDAC6 (electrophoretic mobility shift assay); format: biochemical; conditions: 1 nM HDAC6; 2 μM peptide substrate FAM-RHKK(Ac)—NH2; 25° C.; 12 concentrations; read-out: HDAC6 Activity Range (IC50)
# T1 construct: Full length human recombinant HDAC6 and HDAC11 proteins were expressed in baculoviral system
# T1 sequence (Q9UBN7 1-1215): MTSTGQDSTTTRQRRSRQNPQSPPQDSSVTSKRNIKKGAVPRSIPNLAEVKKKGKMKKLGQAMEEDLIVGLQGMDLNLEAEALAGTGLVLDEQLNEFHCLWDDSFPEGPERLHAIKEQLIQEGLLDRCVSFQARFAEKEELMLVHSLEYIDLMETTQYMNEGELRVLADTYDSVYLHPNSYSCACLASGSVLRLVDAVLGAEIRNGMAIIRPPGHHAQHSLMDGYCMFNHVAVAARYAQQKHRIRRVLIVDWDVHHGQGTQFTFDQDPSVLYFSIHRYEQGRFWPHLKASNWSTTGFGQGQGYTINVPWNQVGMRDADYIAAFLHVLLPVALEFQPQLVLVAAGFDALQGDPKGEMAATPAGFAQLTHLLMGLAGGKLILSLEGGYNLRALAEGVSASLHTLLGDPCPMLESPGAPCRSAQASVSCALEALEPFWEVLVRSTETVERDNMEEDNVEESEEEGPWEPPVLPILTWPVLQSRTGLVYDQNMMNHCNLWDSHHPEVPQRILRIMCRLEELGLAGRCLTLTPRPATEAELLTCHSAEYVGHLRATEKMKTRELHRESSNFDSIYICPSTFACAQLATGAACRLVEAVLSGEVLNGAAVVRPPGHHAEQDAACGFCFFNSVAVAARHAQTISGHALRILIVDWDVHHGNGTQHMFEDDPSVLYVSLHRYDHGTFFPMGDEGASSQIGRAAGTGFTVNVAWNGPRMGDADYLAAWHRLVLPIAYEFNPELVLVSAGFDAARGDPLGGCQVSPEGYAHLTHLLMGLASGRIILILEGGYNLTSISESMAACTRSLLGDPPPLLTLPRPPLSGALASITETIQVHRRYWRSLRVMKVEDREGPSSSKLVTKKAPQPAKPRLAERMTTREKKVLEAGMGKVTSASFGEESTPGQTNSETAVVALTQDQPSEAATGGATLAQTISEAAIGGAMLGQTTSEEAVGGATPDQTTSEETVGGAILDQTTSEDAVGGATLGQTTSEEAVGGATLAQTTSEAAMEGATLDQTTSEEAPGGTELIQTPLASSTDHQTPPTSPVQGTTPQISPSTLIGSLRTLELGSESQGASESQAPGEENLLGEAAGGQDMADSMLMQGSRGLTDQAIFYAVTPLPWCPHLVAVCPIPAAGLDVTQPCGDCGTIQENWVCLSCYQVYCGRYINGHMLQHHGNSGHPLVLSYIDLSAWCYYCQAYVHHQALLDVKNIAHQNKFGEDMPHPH
# Summary of the method: (§1)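 Baculovirus-expressed full-length enzymes (HDAC6 1 nM, FAM-RHKK(Ac)-NH2; HDAC11 10 nM, FAM-RHKK(tri-fluor-Ac)-NH2), 2 μM substrate, HEPES pH 7.5, 25°C, 12-point 3× dilutions. Product/substrate separated by microfluidic mobility shift after SDS quench; IC50 from 4-parameter fit, reported as +/++/+++ bins.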
# [2] = biological target: T2, Full length human recombinant HDAC11 (Homo sapiens, UniProt Q96DB2); test: In vitro histone deacetylase assay, enzymatic HDAC11 (electrophoretic mobility shift assay); format: biochemical; conditions: 10 nM HDAC11; 2 μM peptide substrate FAM-RHKK(tri-fluor-Ac)—NH2; 25° C.; 12 concentrations; read-out: HDAC11 Activity Range (IC50)
# T2 construct: Full length human recombinant HDAC6 and HDAC11 proteins were expressed in baculoviral system
# T2 sequence (Q96DB2 1-347): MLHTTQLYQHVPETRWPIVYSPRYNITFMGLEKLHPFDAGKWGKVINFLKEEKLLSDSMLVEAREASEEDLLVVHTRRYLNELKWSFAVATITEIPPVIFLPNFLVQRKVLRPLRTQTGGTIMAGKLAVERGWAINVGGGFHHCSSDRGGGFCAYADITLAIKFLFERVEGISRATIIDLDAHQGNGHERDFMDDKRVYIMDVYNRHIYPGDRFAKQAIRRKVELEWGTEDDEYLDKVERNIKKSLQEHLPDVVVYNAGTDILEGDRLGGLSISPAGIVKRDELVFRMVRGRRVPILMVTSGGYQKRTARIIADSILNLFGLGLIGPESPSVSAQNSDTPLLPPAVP
# Summary of the method: as §1
Compound,IC50 [1],IC50 [2]
"CN1C[C@@]2(CCc3ccc(C(=O)NO)cc3C2)CC1=O [Compound I-130, (R)—N-hydroxy-1′-methyl-5′-oxo-3,4-dihydro-1H-spiro[naphthalene-2,3′-pyrrolidine]-7-carboxamide]",≤ 100 nM,> 500 nM
"CC#CCN1CC[C@]2(CCc3ccc(C(=O)NO)cc3C2)C1=O [Compound I-83, (R)-1′-(but-2-yn-1-yl)-N-hydroxy-2′-oxo-3,4-dihydro-1H-spiro[naphthalene-2,3′-pyrrolidine]-7-carboxamide]",≤ 100 nM,> 500 nM
"CCCN1CC[C@]2(CCc3ccc(C(=O)NO)cc3C2)C1=O [Compound I-79, (R)—N-hydroxy-2′-oxo-1′-propyl-3,4-dihydro-1H-spiro[naphthalene-2,3′-pyrrolidine]-7-carboxamide]",≤ 100 nM,> 500 nM
"CN1CC[C@]2(CCc3ccc(C(=O)NO)cc3C2)C1=O [Compound I-120, (R)—N-hydroxy-1′-methyl-2′-oxo-3,4-dihydro-1H-spiro[naphthalene-2,3′-pyrrolidine]-7-carboxamide]",≤ 100 nM,> 500 nM
"O=C(NO)c1ccc2c(c1)C[C@]1(CC2)CCN(CC2CCC2)C1=O [Compound I-81, (R)-1′-(cyclobutylmethyl)-N-hydroxy-2′-oxo-3,4-dihydro-1H-spiro[naphthalene-2,3′-pyrrolidine]-7-carboxamide]",≤ 100 nM,> 500 nM
"COc1ccccc1CN1CCC2(CCc3ccc(C(=O)NO)cc3C2)C1 (stereo not drawn) [Compound I-15, N-hydroxy-1′-(2-methoxybenzyl)-3,4-dihydro-1H-spiro[naphthalene-2,3′-pyrrolidine]-7-carboxamide]",≤ 100 nM,> 500 nM
"CN1C[C@]2(CCc3ccc(C(=O)NO)cc3C2)CC1=O [Compound I-131, (S)—N-hydroxy-1′-methyl-5′-oxo-3,4-dihydro-1H-spiro[naphthalene-2,3′-pyrrolidine]-7-carboxamide]",≤ 100 nM,> 500 nM
"COc1ccc(C(=O)N2CCC3(CCc4ccc(C(=O)NO)cc4O3)CC2)cc1 [II-1, N-hydroxy-1′-(4-methoxybenzoyl)spiro[chroman-2,4′-piperidine]-7-carboxamide]",≤ 100 nM,> 500 nM
"O=C(NO)c1ccc2c(c1)C[C@@]1(CCNC1=O)CC2 [Compound I-48, (R)—N-hydroxy-2′-oxo-3,4-dihydro-1H-spiro[naphthalene-2,3′-pyrrolidine]-7-carboxamide]",≤ 100 nM,> 500 nM
"CC(C)N1C[C@@]2(CCc3ccc(C(=O)NO)cc3C2)CC1=O [Compound I-139, (R)—N-hydroxy-1′-isopropyl-5′-oxo-3,4-dihydro-1H-spiro[naphthalene-2,3′-pyrrolidine]-7-carboxamide]",≤ 100 nM,> 500 nM
"CS(=O)(=O)c1ccc(CN2CC[C@]3(CCc4ccc(C(=O)NO)cc4C3)C2=O)cc1 [Compound I-51, (R)—N-hydroxy-1′-(4-(methylsulfonyl)benzyl)-2′-oxo-3,4-dihydro-1H-spiro[naphthalene-2,3′-pyrrolidine]-7-carboxamide]",≤ 100 nM,≤ 100 nM
"O=C(NO)c1ccc2c(c1)C[C@@]1(CC2)CC(=O)N(CC(F)(F)F)C1 [Compound I-144, (S)—N-hydroxy-5′-oxo-1′-(2,2,2-trifluoroethyl)-3,4-dihydro-1H-spiro[naphthalene-2,3′-pyrrolidine]-7-carboxamide]",≤ 100 nM,> 500 nM
"CN1CCC2(CCc3ccc(C(=O)NO)cc3C2)C1 (stereo not drawn) [Compound I-9, N-hydroxy-1′-methyl-3,4-dihydro-1H-spiro[naphthalene-2,3′-pyrrolidine]-7-carboxamide]",100 to 500 nM,> 500 nM

# Now from value to compound:
IC50 [1],IC50 [2],Compound
≤ 100 nM,> 500 nM,"CC(C)n1c(CN2CC[C@@]3(CCc4ccc(C(=O)NO)cc4C3)C2=O)nc2ccccc21 [Compound I-66, (S)—N-hydroxy-1′-((1-isopropyl-1H-benzo[d]imidazol-2-yl)methyl)-2′-oxo-3,4-dihydro-1H-spiro[naphthalene-2,3′-pyrrolidine]-7-carboxamide]"
≤ 100 nM,> 500 nM,"O=C(NO)c1ccc2c(c1)CC1(CC2)CCN(Cc2ccncc2)C1=O (stereo not drawn) [Compound I-22, N-hydroxy-2′-oxo-1′-(pyridin-4-ylmethyl)-3,4-dihydro-1H-spiro[naphthalene-2,3′-pyrrolidine]-7-carboxamide]"
≤ 100 nM,> 500 nM,"COc1cccc(CN2CC[C@@]3(CCc4ccc(C(=O)NO)cc4C3)C2=O)c1 [Compound I-69, (S)—N-hydroxy-1′-(3-methoxybenzyl)-2′-oxo-3,4-dihydro-1H-spiro[naphthalene-2,3′-pyrrolidine]-7-carboxamide]"
≤ 100 nM,≤ 100 nM,"O=C(NO)c1ccc2c(c1)C[C@]1(CC2)CCN(Cc2ccccc2C(F)(F)F)C1=O [Compound I-88, (R)—N-hydroxy-2′-oxo-1′-(2-(trifluoromethyl)benzyl)-3,4-dihydro-1H-spiro[naphthalene-2,3′-pyrrolidine]-7-carboxamide]"
≤ 100 nM,> 500 nM,"O=C(NO)c1ccc2c(c1)C[C@@]1(CC2)CCN(Cc2ccc(Cl)cn2)C1=O [Compound I-39, (S)-1′-((5-chloropyridin-2-yl)methyl)-N-hydroxy-2′-oxo-3,4-dihydro-1H-spiro[naphthalene-2,3′-pyrrolidine]-7-carboxamide]"
≤ 100 nM,≤ 100 nM,"O=C(NO)c1ccc2c(c1)C[C@]1(CC2)CCN(Cc2ccccc2OC(F)F)C1=O [Compound I-105, (R)-1′-(2-(difluoromethoxy)benzyl)-N-hydroxy-2′-oxo-3,4-dihydro-1H-spiro[naphthalene-2,3′-pyrrolidine]-7-carboxamide]"
100 to 500 nM,> 500 nM,"O=C(NO)c1ccc2c(c1)C[C@@]1(CC2)CCN(Cc2ccccc2OC(F)(F)F)C1=O [Compound I-62, (S)—N-hydroxy-2′-oxo-1′-(2-(trifluoromethoxy)benzyl)-3,4-dihydro-1H-spiro[naphthalene-2,3′-pyrrolidine]-7-carboxamide]"
≤ 100 nM,> 500 nM,"COc1ccccc1N1CC[C@@]2(CCc3ccc(C(=O)NO)cc3C2)C1=O [Compound I-114, (S)—N-hydroxy-1′-(2-methoxyphenyl)-2′-oxo-3,4-dihydro-1H-spiro[naphthalene-2,3′-pyrrolidine]-7-carboxamide]"
≤ 100 nM,≤ 100 nM,"O=C(NO)c1ccc2c(c1)C[C@]1(CC2)CCN(c2cnc3ccccc3c2)C1=O [Compound I-107, (R)—N-hydroxy-2′-oxo-1′-(quinolin-3-yl)-3,4-dihydro-1H-spiro[naphthalene-2, 3′-pyrrolidine]-7-carboxamide]"
100 to 500 nM,> 500 nM,"O=C(NO)c1ccc2c(c1)C[C@@]1(CC2)CCN(Cc2cc(Cl)ccc2Cl)C1=O [Compound I-67, (S)-1′-(2,5-dichlorobenzyl)-N-hydroxy-2′-oxo-3,4-dihydro-1H-spiro[naphthalene-2,3′-pyrrolidine]-7-carboxamide]"
≤ 100 nM,≤ 100 nM,"O=C(NO)c1ccc2c(c1)C[C@]1(CC2)CCN(C/C=C/c2ccccc2)C1=O [Compound I-86, (R)-1′-cinnamyl-N-hydroxy-2′-oxo-3,4-dihydro-H-spiro[naphthalene-2,3′-pyrrolidine]-7-carboxamide]"
